Results: BindingDB's records for doi:10.1021/jm00106a035 (University of Maryland, 1991)

Experiments:
[1] = In vitro inhibitory activity towards [3H]cocaine binding to rat striatal tissue
[2] = as above; remark: listed apart in the source

SMILES	IC50 [1] [nM]	IC50 [2] [nM]
COC(=O)C1C2CC[C@H](C[C@@H]1OC(=O)Nc1ccccc1)N2C (stereo not given in full)	5600	
COC(=O)C1C2CC[C@H](C[C@@H]1OC(=O)Nc1cccc(N)c1)N2C (stereo not given in full)	2070	
COC(=O)C1C2CC[C@H](C[C@@H]1OC(=O)Nc1ccc([N+](=O)[O-])cc1)N2C (stereo not given in full)	1090	
COC(=O)C1C2CC[C@H](C[C@@H]1OC(=O)Nc1cccc([N+](=O)[O-])c1)N2C (stereo not given in full)	37	
COC(=O)[C@H]1[C@@H](OC(=O)c2ccccc2)C[C@@H]2CC[C@H]1N2C [Cocaine (-)]		65
